{"source": "patent US10751353B2", "about": "“Compositions and methods for treating an aggregation disease or disorder” (Seelos Therapeutics, Inc., priority 2013, dated 2020)", "key": {"Dog": {"system": "Dog", "conditions": "cited from earlier work; for LD50: Dog"}, "OPMD mouse model": {"system": "OPMD mouse model", "conditions": "cited from earlier work"}, "[1]": {"conditions": "cited from earlier work"}, "mutant PABPN1 proteins": {"system": "mutant PABPN1 proteins", "conditions": "OPMD cell models; cited from earlier work"}, "Mouse": {"system": "Mouse", "conditions": "cited from earlier work; for LD50: Mouse"}, "[2]": {"conditions": "cited from earlier work", "remark": "listed apart in the source"}, "[3]": {"assay": "Preclinical PK study: plasma and muscle concentrations of trehalose after IV bolus and oral gavage", "assay_type": "in vivo, male Sprague-Dawley (SD) rats", "experimental": "The plasma and muscle concentrations of trehalose in male Sprague-Dawley (SD) rats was determined after intravenous bolus (IV) and oral gavage (PO) administration.\nThe study included 42 SD rats (male, 250 to 350 grams in weight, the Shanghai SLAC Laboratory Animal Co. Ltd.). Animals were administered with a volume of 5 ml/kg trehalose formulation (trehalose dihydrate in sterilized water at 200 mg/mL) to achieve a nominal dose of 1 gr/kg, intravenously or orally.\nBlood samples were collected after each dose administration and processed for plasma. Muscle samples (hind leg muscle) were collected and homogenized. The concentrations of trehalose in plasma and muscle homogenate samples were analyzed by qualified bioanalytical LC/MS/MS methods.\nPlasma concentration data of trehalose was subjected to a non compartmental pharmacokinetic analysis using WinNonlin software program (version 6.3, Pharsight, Mountain View, Calif.). Zero-time intercept concentration (C0), volume of distribution (Vdss), Clearance (Cl) peak plasma concentrations (Cmax) and the corresponding peak times (Tmax), terminal half-life (T½), mean residence time (MRT) from time zero to the last time point (MRT0-last), MRT from time zero to infinity (MRT0-inf), the area under the plasma concentration-time curve (AUC) from time zero to the last time point (AUC0-last) and AUC from time zero extrapolated to infinity (AUC0-inf) were calculated using the linear/log trapezoidal rule. Nominal sampling times were used to calculate all pharmacokinetic parameters since there was not any deviation larger than 5% between the actual and nominal sampling times.\nThe values of muscle to plasma concentration and AUC ratio (M/P ratio) were both calculated."}, "Rat": {"system": "Rat", "conditions": "cited from earlier work"}, "[4]": {"conditions": "rabbits; 500 mg intravenously; cited from earlier work"}, "[5]": {"conditions": "male, Sprague-Dawley, rat, in vivo, iv, 1000 mg/kg"}, "[6]": {"conditions": "male, Sprague-Dawley, rat, in vivo, po, 1000 mg/kg"}}, "note": "Several values for one entry are separate records, joined by “and”; a condition that tells them apart may be missing. Identical values can stand only once. Like-named read-outs stand apart in the source and are kept apart here.", "data": [{"smiles": "OC[C@H]1O[C@H](O[C@H]2O[C@H](CO)[C@@H](O)[C@H](O)[C@H]2O)[C@H](O)[C@@H](O)[C@@H]1O", "note": "[trehalose]", "values": [{"measurement": "LD50", "setting": "Dog; Intravenous", "result": ">1000", "unit": "mg/kg bw"}, {"measurement": "LD50", "setting": "Dog; Oral", "result": ">5000", "unit": "mg/kg bw"}, {"measurement": "signs of toxicity and deaths", "setting": "Dog; dogs, oral and intravenous administration", "result": "no deaths occurred"}, {"measurement": "aggregate formation", "setting": "OPMD mouse model", "result": "decreased aggregate formation"}, {"measurement": "muscle weakness", "setting": "OPMD mouse model", "result": "attenuation of muscle weakness"}, {"measurement": "number of pathological skeletal muscle fibers", "setting": "OPMD mouse model", "result": "reduced number of pathological skeletal muscle fibers"}, {"measurement": "share of ingested trehalose absorbed into the blood stream", "setting": "[1]; oral ingestion", "result": "Less than 0.5%"}, {"measurement": "share of trehalose not absorbed into the blood stream", "setting": "[1]; oral", "result": "Over 99.5%"}, {"measurement": "aggregation and toxicity of mutant PABPN1 proteins", "setting": "mutant PABPN1 proteins", "result": "effective in reducing"}, {"measurement": "LD50", "setting": "Mouse; Intravenous", "result": ">1000", "unit": "mg/kg bw"}, {"measurement": "LD50", "setting": "Mouse; Oral", "result": ">5000", "unit": "mg/kg bw"}, {"measurement": "signs of toxicity and deaths", "setting": "Mouse; mice, oral and intravenous administration", "result": "no deaths occurred"}, {"measurement": "safety in healthy volunteers", "setting": "[2]; oral doses 10 to 60 gr, apart from mild abdominal symptoms", "result": "no other safety issues were reported"}, {"measurement": "oral amount that causes diarrhea and bloating", "setting": "[2]; oral", "result": "40-50 gram per day"}, {"measurement": "oral amount that frequently causes diarrhea, bloating and discomfort", "setting": "[2]; oral, humans", "result": "higher than 50 g a day"}, {"measurement": "tolerability at the given dosage", "setting": "[3]; 1000 mg/kg IV or PO, male SD rats", "result": "well tolerated"}, {"measurement": "bioavailability", "setting": "[3]; male, Sprague-Dawley, rat, in vivo, 1000 mg/kg", "result": 0.601, "unit": "%"}, {"measurement": "AUC(0-inf)", "setting": "[3]; [5]", "result": 781, "unit": "µg·h/mL"}, {"measurement": "CI (total clearance)", "setting": "[3]; [5]", "result": 17.2, "unit": "mL/min/kg"}, {"measurement": "Cmax", "setting": "[3]; [5]", "result": "3730 ng/mL and 3730 ng/g"}, {"measurement": "Vd", "setting": "[3]; [5]", "result": 0.685, "unit": "L/kg"}, {"measurement": "Vdss", "setting": "[3]; [5]", "result": 0.685, "unit": "L/kg"}, {"measurement": "clearance", "setting": "[3]; [5]", "result": 17.2, "unit": "mL/min/kg"}, {"measurement": "total clearance as share of rat liver blood flow (=55 mL/min/kg)", "setting": "[3]; [5]", "result": "approximately 31.3%"}, {"measurement": "AUC(0-t)", "setting": "[3]; male, Sprague-Dawley, rat, in vivo, iv, 1000 mg/kg, AUC0-last", "result": 778, "unit": "µg·h/mL"}, {"measurement": "Kp", "setting": "[3]; male, Sprague-Dawley, rat, in vivo, iv, 1000 mg/kg, AUC ratio = Muscle AUC0-inf/Plasma AUC0-inf", "result": 0.234}, {"measurement": "Kp", "setting": "[3]; male, Sprague-Dawley, rat, in vivo, iv, 1000 mg/kg, mean ratios of muscle trehalose concentration to plasma concentration", "result": "2.88 to 3.76"}, {"measurement": "AUC(0-t)", "setting": "[3]; male, Sprague-Dawley, rat, in vivo, iv, 1000 mg/kg, muscle exposure AUC0-last (48 hr)", "result": 107, "unit": "µg·h/mL"}, {"measurement": "AUC0-inf/AUC0-last", "setting": "[3]; [6]", "result": 108, "unit": "%"}, {"measurement": "AUC0-last", "setting": "[3]; [6]", "result": 4.52, "unit": "µg·h/mL"}, {"measurement": "AUC(0-inf)", "setting": "[3]; [6]", "result": 4.87, "unit": "µg·h/mL"}, {"measurement": "Cmax", "setting": "[3]; [6]", "result": 4280, "unit": "ng/mL"}, {"measurement": "T1/2", "setting": "[3]; [6]", "result": 0.740, "unit": "h"}, {"measurement": "AUC(0-t)", "setting": "[3]; male, Sprague-Dawley, rat, in vivo, po, 1000 mg/kg, AUC0-last", "result": 4.52, "unit": "µg·h/mL"}, {"measurement": "MRT inf", "setting": "[3]; male, Sprague-Dawley, rat, in vivo, po, 1000 mg/kg, MRT0-inf", "result": 1.26, "unit": "h"}, {"measurement": "MRT last", "setting": "[3]; male, Sprague-Dawley, rat, in vivo, po, 1000 mg/kg, MRT0-last", "result": 1.04, "unit": "h"}, {"measurement": "half-life", "setting": "[3]; male, Sprague-Dawley, rat, in vivo, po, 1000 mg/kg, T1/2", "result": 0.74, "unit": "h"}, {"measurement": "cellular uptake and retention after rapid intravenous administration", "setting": "[3]; rat, in vivo, iv", "result": "48 to 72", "unit": "h"}, {"measurement": "AUC0-last", "setting": "[3]; rat, in vivo, iv, 1000 mg/kg", "result": 107000, "unit": "ng·h/g"}, {"measurement": "AUC(0-inf)", "setting": "[3]; rat, in vivo, iv, 1000 mg/kg", "result": 183000, "unit": "ng·h/g"}, {"measurement": "muscle samples of oral group", "setting": "[3]; rat, in vivo, po, 1000 mg/kg", "result": "below LLOQ"}, {"measurement": "plasma and muscle concentrations of trehalose, formulation administered orally", "setting": "[3]; rat, in vivo, po, 1000 mg/kg", "result": "undetectable"}, {"measurement": "LD50", "setting": "Rat; Rat, Intravenous", "result": ">1000", "unit": "mg/kg bw"}, {"measurement": "signs of toxicity and deaths", "setting": "Rat; rats, oral and intravenous administration", "result": "no deaths occurred"}, {"measurement": "time to clearance from the plasma", "setting": "[4]", "result": "≤ 60", "unit": "min"}, {"measurement": "trehalose detected in the urine", "setting": "[4]", "result": "none was detected"}]}]}
